From US9526795B2, “N-BOC-dendrimers and their conjugates” (Annam Biosciences, LLC, priority 2012, dated 2016)

Test system: ovarian cancer cell lines
Assay: doxorubicin-dendrimer-folate uptake in ovarian cancer cells
Type: cell-based
Details: FIG. 8; compared with doxorubicin and doxorubicin-(folate)1; folate-quenching correction
Procedure: Ovarian cancer cells were purchased from ATCC (CRL-6322, ATCC American Type Culture Collection, Rockville, Md.) and were grown in Dulbecco's modified Eagle's medium (DMEM) with 10% fetal bovine serum and 100 units/mL penicillin. The cells were grown at 37° C. in 5% CO2 environment. The culture medium was removed and discarded. The cells were rinsed with Dulbecco Phosphate Buffer Solution (DPBS), Trypsin-ethylenediaminetetra-acetic acid (EDTA) solution (0.5 ml) was added, and the cells were observed under an inverted microscope to make sure that they were dispersed. Complete growth medium (6.0 to 8.0 ml) was added, and the cells were aspirated by gently pipetting. The cell suspension in appropriate aliquots was transferred to new culture plates. The cells were allowed to grow at 37° C. in 5% CO2 for 24 hours before further experiments. […]
The evaluation of doxorubicin-dendrimer-folate uptake is conducted by using a literature procedure (Kim D, Lee E S, Oh K T, Gao Z G, Bae Y H. Doxorubicin-loaded polymeric micelle overcomes multidrug resistance of cancer by double-targeting folate receptor and early endosomal pH. Small. 2008 November; 4(11):2043-50) and folate-quenching correction was adjusted based on a literature procedure (Husseini G. A., 2012. Folic Acid Quenches Doxorubicin Fluorescence. Advanced Science Letters. 7:726).

COc1cccc2c1C(=O)c1c(O)c3c(c(O)c1C2=O)C[C@@](O)(/C(CO)=N/NC(=O)CCCC(=O)NCCCOCCOCCOCCCN(CCC(=O)NCCNC(=O)CCC(NC(=O)c1ccc(NCc2cnc4c(=O)[nH]c(N)nc4n2)cc1)C(=O)O)CCC(=O)NCCNC(=O)CCC(NC(=O)c1ccc(NCc2cnc4c(=O)[nH]c(N)nc4n2)cc1)C(=O)O)C[C@H]3O[C@H]1C[C@@H](N)[C@@H](O)[C@@H](C)O1 (stereo partly shown) [doxorubicin-dendrimer-(folate)2, doxorubicin-hydrazine-glutaric acid-PEG3-dendrimer-2-folates]
uptake by ovarian cancer cell lines: superior uptake
